Assay results: ChEMBL document CHEMBL3400104, “Discovery of a potent, orally available dual CysLT₁ and CysLT₂ antagonist with dicarboxylic acid” (Bioorg Med Chem, 2015)

Experiments:
[1] = molecular target: T1, Cysteinyl leukotriene receptor 1 (Homo sapiens, UniProt Q9Y271); assay: Antagonist activity at human CysLT1 receptor expressed in CHO cells assessed as inhibition of LTD4-inudced intracellular calcium influx preincubated for 30 mins before LTD4 addition by Fura2-AM assay; type: functional, cell-based
T1 sequence (Q9Y271 whole entry): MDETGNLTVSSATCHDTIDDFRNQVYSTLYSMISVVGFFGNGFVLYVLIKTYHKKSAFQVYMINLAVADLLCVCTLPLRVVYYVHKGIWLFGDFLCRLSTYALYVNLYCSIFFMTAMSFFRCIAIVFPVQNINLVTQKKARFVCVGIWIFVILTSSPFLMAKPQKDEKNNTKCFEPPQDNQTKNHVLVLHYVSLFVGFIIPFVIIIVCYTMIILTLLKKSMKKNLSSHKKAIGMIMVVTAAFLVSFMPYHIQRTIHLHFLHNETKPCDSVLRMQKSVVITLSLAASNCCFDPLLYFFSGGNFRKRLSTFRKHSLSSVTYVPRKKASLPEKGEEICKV

[2] = molecular target: T2, Cysteinyl leukotriene receptor 2 (Homo sapiens, UniProt Q9NS75); assay: Antagonist activity at human CysLT2 receptor expressed in HEK293 cells assessed as inhibition of LTD4-inudced intracellular calcium influx preincubated for 30 mins before LTD4 addition by Fura2-AM assay; type: functional, cell-based
T2 sequence (Q9NS75 whole entry): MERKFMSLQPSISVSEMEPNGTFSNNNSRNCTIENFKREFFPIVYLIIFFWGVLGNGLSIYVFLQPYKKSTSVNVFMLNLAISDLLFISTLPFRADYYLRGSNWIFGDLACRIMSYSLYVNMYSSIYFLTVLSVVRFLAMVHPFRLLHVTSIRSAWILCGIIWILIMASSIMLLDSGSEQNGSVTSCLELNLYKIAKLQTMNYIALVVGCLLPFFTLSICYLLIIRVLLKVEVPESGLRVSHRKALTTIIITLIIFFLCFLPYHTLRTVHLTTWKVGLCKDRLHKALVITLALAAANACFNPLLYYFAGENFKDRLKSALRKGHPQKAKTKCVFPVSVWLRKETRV

[3] = Apparent permeability across apical to basolateral or basolateral to apical side in human Caco2 cells at 1 uM after 2 hrs by LC/MS/MS analysis; type: ADME, cell-based; conditions: Caco-2
[4] = Cmax in rat at 30 mg/kg, po; type: ADME, organism-based; design: dose 30 mg/kg, route oral; conditions: in vivo
[5] = Half life in rat at 30 mg/kg, po; type: ADME, organism-based; design: dose 30 mg/kg, route oral; conditions: in vivo
[6] = AUC in rat at 30 mg/kg, po; type: ADME, organism-based; design: dose 30 mg/kg, route oral; conditions: plasma
[7] = Oral bioavailability in rat at 30 mg/kg; type: ADME, organism-based; conditions: in vivo
[8] = Clearance in rat at 1 mg/kg, iv; type: ADME, organism-based; design: dose 1 mg/kg, route intravenous; conditions: in vivo
[9] = Half life in rat at 1 mg/kg, iv; type: ADME, organism-based; design: dose 1 mg/kg, route intravenous; conditions: in vivo
[10] = AUCinf in rat at 1 mg/kg, iv; type: ADME, organism-based; design: dose 1 mg/kg, route intravenous, time infinity; conditions: plasma
[11] = Volume of distribution at steady state in rat at 1 mg/kg, iv; type: ADME, organism-based; design: dose 1 mg/kg, route intravenous; conditions: in vivo, read-out: Vdss
[12] = Apparent permeability of the compound at pH 6.2 by PAMPA; type: physicochemical
[13] = Apparent permeability of the compound at pH 7.4 by PAMPA; type: physicochemical
[14] = Cmax in rat at 10 mg/kg, po; type: ADME, organism-based; design: dose 10 mg/kg, route oral; conditions: in vivo
[15] = Half life in rat at 10 mg/kg, po; type: ADME, organism-based; design: dose 10 mg/kg, route oral; conditions: in vivo
[16] = AUC in rat at 10 mg/kg, po; type: ADME, organism-based; design: dose 10 mg/kg, route oral; conditions: plasma
[17] = Oral bioavailability in rat at 10 mg/kg; type: ADME, organism-based; conditions: in vivo
[18] = test system: Cavia porcellus; assay: In vivo inhibition of CysLT1 receptor in po dosed guinea pig assessed as reduction in LTD4-induced bronchoconstriction; type: functional, organism-based
[19] = test system: Cavia porcellus; assay: In vivo inhibition of CysLT1 receptor in guinea pig assessed as reduction in LTD4-induced bronchoconstriction at 3 mg/kg, po relative to vehicle treated control; type: functional

Row | Structure (SMILES) | IC50 [1] | IC50 [2] | Papp at 2 h, 1 µM [3] | Cmax [4] | half-life [5] | AUC [6] | bioavailability [7] | clearance [8] | half-life [9] | AUC(0-inf) [10] | Vd [11] | Papp [12] | Papp [13] | Cmax [14] | half-life [15] | AUC [16] | bioavailability [17] | inhibition [18] | inhibition in vivo at 3 mg/kg [19]
1 | O=C(O)CCCN1CC(C(=O)O)Oc2c(CCc3ccc(OCCCCc4ccccc4)cc3)cccc21 (stereo unspecified) | 82 nM | 16 nM | 2.8 ×10⁻⁶ cm/s | 12000 ng/mL | 2.5 h | 88000 ng·h/mL | 79% | 4.8 mL/min/kg | 6 h | 3700 ng·h/mL | 1.46 L/kg | – | – | – | – | – | – | – | –
2 | O=C(O)CCCN1CC(CO)Oc2c(NC(=O)c3ccc(OCCCCc4ccccc4)cc3)cccc21 (stereo unspecified) | 740 nM | 410 nM | 0.17 ×10⁻⁶ cm/s | – | – | – | – | – | – | – | – | – | – | – | – | – | – | – | –
3 | O=C(O)CCCOc1nc2cccc(/C=C/c3ccc(OCCCCOc4ccccc4)cc3)c2nc1C(=O)O | 490 nM | 75 nM | 11 ×10⁻⁶ cm/s | – | – | – | – | – | – | – | – | 11 ×10⁻⁶ cm/s | < 0.1 ×10⁻⁶ cm/s | – | – | – | – | – | –
4 | O=C(O)CCCN1CCOc2c(NC(=O)c3ccc(OCCCCc4ccccc4)cc3)cccc21 | 1900 nM | 4300 nM | 0.17 ×10⁻⁶ cm/s | – | – | – | – | – | – | – | – | – | – | – | – | – | – | – | –
5 | O=C(O)CCCN1CC(C(=O)O)Oc2c(OCc3ccc(OCCCCc4ccccc4)cc3)cccc21 (stereo unspecified) | 58 nM | – | 0.74 ×10⁻⁶ cm/s | 5600 ng/mL | 7.4 h | 48000 ng·h/mL | 20% | 2.2 mL/min/kg | 6 h | 7900 ng·h/mL | 0.18 L/kg | – | – | – | – | – | – | – | –
6 | O=C(O)CCCN1CC(C(=O)O)Oc2c(NC(=O)c3ccc(OCCCCc4ccccc4)cc3)cccc21 (stereo unspecified) | – | – | 0.18 ×10⁻⁶ cm/s | 210 ng/mL | 3.2 h | – | – | – | – | 3500 ng·h/mL | 0.104 L/kg | – | – | – | – | – | – | – | –
7 | O=C(O)CCCN1CC(C(=O)O)Oc2c(/C=C/c3ccc(OCCCCc4ccccc4)cc3)cccc21 (stereo unspecified) | 70 nM | 5.7 nM | 1.3 ×10⁻⁶ cm/s | 21000 ng/mL | 3.6 h | 203000 ng·h/mL | 29% | 0.77 mL/min/kg | 5.6 h | 24000 ng·h/mL | 0.365 L/kg | 1.1 ×10⁻⁶ cm/s | 0.1 ×10⁻⁶ cm/s | – | – | – | – | – | –
8 | O=C(O)CCCn1cc(CC(=O)O)c2c(/C=C/c3ccc(OCCCCOc4ccccc4)cc3)cccc21 | – | – | – | – | – | – | – | 0.65 mL/min/kg | 7.1 h | 28000 ng·h/mL | 0.208 L/kg | – | – | 33000 ng/mL | 4.7 h | 324000 ng·h/mL | 100% | Dose-dependent effect | 45%
9 | CS(=O)(=O)NC(=O)C1CN(CCCC(=O)O)c2cccc(NC(=O)c3ccc(OCCCCc4ccccc4)cc3)c2O1 (stereo unspecified) | 22 nM | 16 nM | 0.06 ×10⁻⁶ cm/s | – | – | – | – | – | – | – | – | – | – | – | – | – | – | – | –
10 | O=C(O)CCCN1CC(C(=O)O)Oc2c(/C=C/c3ccc(OCCCCOc4ccccc4)cc3)cccc21 (stereo unspecified) | 24 nM | 0.31 nM | 7.8 ×10⁻⁶ cm/s | – | – | – | – | – | – | – | – | 7.8 ×10⁻⁶ cm/s | < 0.1 ×10⁻⁶ cm/s | – | – | – | – | – | –
11 | O=C(O)CCCn1cc(C(=O)O)c(=O)c2c(/C=C/c3ccc(OCCCCOc4ccccc4)cc3)cccc21 | 250 nM | 370 nM | 13 ×10⁻⁶ cm/s | – | – | – | – | – | – | – | – | 13 ×10⁻⁶ cm/s | 12 ×10⁻⁶ cm/s | – | – | – | – | – | –
12 | O=C(O)CCCN1CC(c2nnn[nH]2)Oc2c(NC(=O)c3ccc(OCCCCc4ccccc4)cc3)cccc21 (stereo unspecified) | 0.79 nM | 0.49 nM | 0.11 ×10⁻⁶ cm/s | 40 ng/mL | 11 h | 700 ng·h/mL | 1% | 7.8 mL/min/kg | 4 h | 2100 ng·h/mL | 0.342 L/kg | – | – | – | – | – | – | – | –
13 | O=C(O)CCCN1CC(c2nnn[nH]2)Oc2c(CCc3ccc(OCCCCc4ccccc4)cc3)cccc21 (stereo unspecified) | 35 nM | 15 nM | 0.52 ×10⁻⁶ cm/s | – | – | – | – | 15 mL/min/kg | 3.8 h | 1200 ng·h/mL | 0.999 L/kg | – | – | 400 ng/mL | 2.9 h | 1800 ng·h/mL | 15% | – | –
14 | O=C(O)CCCN1CC(C(=O)NS(=O)(=O)c2ccccc2)Oc2c(NC(=O)c3ccc(OCCCCc4ccccc4)cc3)cccc21 (stereo unspecified) | 70 nM | 5.7 nM | 0.06 ×10⁻⁶ cm/s | – | – | – | – | – | – | – | – | – | – | – | – | – | – | – | –
15 | O=C(O)CCCN1CC(c2nnn[nH]2)Oc2c(/C=C/c3ccc(OCCCCc4ccccc4)cc3)cccc21 (stereo unspecified) | 0.59 nM | 3.4 nM | 0.16 ×10⁻⁶ cm/s | – | – | – | – | – | – | – | – | – | – | – | – | – | – | – | –
